For assay [1], the system named is CHO cells expressing an nanobody. Nature of the assay: Fed batch culture of CHO cells expressing a nanobody in shake flasks, FeSO4 addition on day 6. In kind it is cell-based, Chinese hamster. The note with it: 1 mM iron added on day 6. The method, then:
CHO cells expressing an nanobody were grown by fed batch culture in shake flasks. Cells were initially cultured in 7% CO2 incubator at 37° C. for 0-4 days and shifted to 31° C. after day 4. FeSO4 was added on day 6 to effect a concentration of 1 mM of iron in the cell culture medium. Cells were subjected to cell density, viability, titer, lactate level and Qp analysis at various time points throughout the cell culture process as described in Example 1.

For assay [2], the system named is cell line producing a monoclonal antibody (clone 2.8). In words: Fed batch culture of clone 2.8 in shake flasks, Fe addition on day 0 or day 9. In kind it is cell-based. To be noted: 600 μM added on day 0. The method, then: This experiment is designed to test whether a high concentration of Fe added at day 0 would have an advantageous effect. […] Seed density was 1.5×10^6 cells/mL. The cells were cultured for 14 days. The basal medium was a chemically defined basal medium supplemented with amino acids including 4 mM glutamine. Feed medium is a chemically defined concentrated feed medium. Fe-citrate or FeSO4 was added on day 0 or day 9 to effect a concentration of 600 μM of iron in the cell culture medium. Cells were subjected to cell density, viability, titer and Qp analysis at various time points throughout the cell culture process as described in previous examples.

This note sets out measurements from patent US20140322758A1, “ADDITION OF IRON TO IMPROVE CELL CULTURE” (Pfizer Inc., priority 2011, published 2014).

The compound `O=S(=O)([O-])[O-].[Fe+2]` [FeSO4] gave a Qp in assay [1] (control 10 μg/e6/day, FIG. 9) of 20 μg/e6/day. In assay [1] (control increased to 2.24 g/L on day 15, FIG. 10), the lactate level is around 0 g/L. In assay [1] (read on day 15, control 1.5 g/L, FIG. 8), this compound came in with a titer of 3.2 g/L. In assay [1] (read on day 15, control 70%, FIG. 7), this compound displayed a viability of 96%.
For ferric citrate [Fe-citrate], the cell growth result in assay [2] (FIG. 11) is recorded as “increased cell growth at early stage”. In addition, the “viability on day 14” value in assay [2] (control 74-80%, FIG. 12) is reported as “about 75%”. Also, the Qp entry in assay [2] (throughout the culture, FIG. 13) was “lower than all other conditions”.

One may read the viability as a per cent measure of how many cells are alive, often set against a control.
